In publication PMC4841536, “Characterization of the Anti-HCV Activities of the New Cyclophilin Inhibitor STG-175” (PLoS ONE, 2016):
Read-outs that look alike come from different tables or passages of the source.

Tests used:
[1] = test system: subgenomic Con1 (GT1b) replicon in Huh-7 cells; format: cell-based, hepatitis C virus; details: for passages until development of HCV resistance, DAA alone ("instead of" comparison): compared with combination
Method: Huh-7 cell expressing subgenomic Con1 (GT1b) replicon were seeded in a 10 cm dish at a density of 3 × 10^5 cells per culture flask in complete DMEM (with G418) with STG-175 or selected drugs. Cells were grown until they reached 90% confluence, trypsinized and re-seeded at the same cell concentration in a new 10-cm dish with the same drug concentration. Cells were passaged 22 times in the presence of drugs. At each passage, sample of cells were collected, RNA extracted according to the manufacturer's instructions and analyzed by RT-PCR for HCV RNA levels.
(§1) Fig 3 Replicon clearance, replication rebound and resistance analyses. […] Then drugs were removed to allow viral replication rebound to occur. At each passage, samples of cells were collected, RNA extracted and analyzed by RT-PCR for HCV RNA levels. B. Emergence of resistance: Con1 replicon Huh-7 cells were passaged 22 times in the absence or presence of STG-175 or selected DAAs. At each passage, sample of cells were collected, RNA extracted and analyzed by RT-PCR for HCV RNA levels. C. […] Data are expressed as number of HCV RNA copies per cell. […] Data are expressed as mean of relative light units and calculated EC50s are presented. […] E. Degree of resistance of D320E and Y321N Con1 variants: Left panel. Wild-type (WT), D320E and D320/Y321N NS5A Con1 RNA were electroporated into Huh7.5.1 cells and replication monitored over 8 days by quantifying the levels of intracellular HCV RNA. Right panel. Same as just above except that increasing concentrations of STG-175 were added at the time of the electroporation. […] STG-175 is taken as the substance from the printed x-axis title 'STG-175 in Log nM'.
We then examined the development of resistance to STG-175. GT1b Con1 sub-genomic replicon cells were grown in the presence of STG-175 (0.25 and 1 μM), telaprevir (2.5 and 10 μM), boceprevir (2.5 and 10 μM), daclatasvir 100 pM and 1 nM) or a combination of STG-175 (0.25 μM) with either telaprevir (2.5 μM), boceprevir (2.5 μM) or daclatasvir (100 pM) for 22 successive passages. At each passage, fresh drug was added and a sample of cells was taken to quantify HCV RNA levels by RT-qPCR.

[2] = test system: wild-type Con1 GT1b replicon; assay: Electroporated Con1 RNA replication in Huh7.5.1 cells (RT-qPCR), wild-type; format: cell-based; details: Hepatitis C virus
Text: (§2) The GT1b subgenomic firefly luciferase reporter replicon pFK-I389/NS3–3 was provided by R. Bartenschlager. The GT1B subgenomic NS3, NS5A and NS5B mutants were created via homologous recombination using the In-Fusion HD Cloning kit (Clontech) as we described previously. […] The in vitro transcription of wild-type and mutant Con1 RNA was accomplished using the T7 MEGAscript kit (Ambion) by following the manufacturer’s instructions. In vitro-transcribed RNAs were introduced into Huh7.5.1 cells by electroporation. Trypsinized cells were washed twice and resuspended in phosphate-buffered saline (PBS) (calcium-free and magnesium-free) at 1x 10^7 cells per ml. Ten micrograms of RNA for each mutant was mixed with 0.4 mL of cells in a 4-mm cuvette, and a Bio-Rad Gene Pulser system was used to deliver a single pulse at 0.27 kV, 100 ohms, and 960 μF. Cells were then plated in 12-well dishes. RNA transfection efficiency and HCV subgenomic replication were assessed by reverse transcription-quantitative PCR (RT-qPCR) and presented as genome equivalents (GE) per microgram of total RNA as described previously. We measured by RT-qPCR the replication of wild-type, STG-175-, NS5Ai-, NS3i- and NS5Bi-resistant mutants in the presence of increasing concentrations of SGT-175, daclatasvir, telaprevir, boceprevir and sofosbuvir over a period of 8 days.
as §1
To determine whether the D320E and Y321N substitutions truly render HCV resistant to STG-175, they were introduced into wild-type Con1 replicon as we described previously. Introduction of the substitutions was verified by sequencing. In vitro-transcribed wild-type, D320E and D320E/Y321N HCV RNAs were then electroporated into Huh7.5.1 cells and viral replication assessed by RT-qPCR and presented as GE per microgram of total RNA as we described previously. […] We then analyzed the replication of wild-type, D320E and D320E/Y321N in the presence of increasing concentrations of SGT-175 over a period of 8 days.
Fig 5 Cross-resistance analyses.

[3] = test system: D320E NS5A Con1 GT1b replicon; assay: microbe, parasite or virus in culture; format: cell-based, hepatitis C virus; details: Hepatitis C virus, GT1B
Text: as §2
(§3) D320E and D320E/Y321N NS5A substitutions were introduced into wild-type Con1 GT1 replicon as we described previously. Con1-NS5A-D320E, and Con1-NS5A-D320E/Y321N were generated using the following forward and reverse phosphorylated (p) primer sets, respectively: (p)[…] and (p)[…], and (p)[…] and (p)[…]. PCR products were circularized with Quick T4 DNA ligase (NEB) for 5 min and transformed into NEB 10-beta competent cells. The NS5A gene was sequenced to confirm the introduced substitutions.
as §1
(§4) To determine whether the D320E and Y321N substitutions truly render HCV resistant to STG-175, they were introduced into wild-type Con1 replicon as we described previously. Introduction of the substitutions was verified by sequencing.

[4] = test system: D320E/Y321N NS5A Con1 GT1b replicon; assay: microbe, parasite or virus in culture; format: cell-based, hepatitis C virus; details: Hepatitis C virus, GT1B
Text: as §2, §3, §1, §4

[5] = Huh-7.5.1, 192 h, read-out: EC50 GT1b WT
[6] = Huh-7.5.1, 192 h, read-out: EC50 D320E NS5A
[7] = Huh-7.5.1, 192 h, read-out: EC50 D320E/Y321N NS5A

Structure (SMILES) | passage at which resistance began ([1]; 100 pM) [passage] | passage at which resistance began ([1]; 1 nM) [passage] | passages until development of HCV resistance, DAA alone ("instead of" comparison) [1] [passages] | EC50 ([2]; Huh-7.5.1, read-out: EC50 wild-type replicon) [nM] | EC50 ([3]; Huh-7.5.1, read-out: EC50 D320E replicon) [nM] | EC50 ([4]; Huh-7.5.1, read-out: EC50 D320E/Y321N replicon) [nM] | EC50 [2, 5] [nM] | EC50 [3, 6] [nM] | EC50 [4, 7] [nM] | passage at which resistance began ([1]; 2.5 μM) [passage] | passage at which resistance began ([1]; 10 μM) [passage]
COC(=O)N[C@H](C(=O)N1CCC[C@H]1c1nc(-c2ccc(-c3ccc(-c4c[nH]c([C@@H]5CCCN5C(=O)[C@@H](NC(=O)OC)C(C)C)n4)cc3)cc2)c[nH]1)C(C)C [daclatasvir] | 4 | 5 | 4 | 0.043 | 0.032 | 0.039 |  |  |  |  | 
CC(C)OC(=O)[C@H](C)N[P@](=O)(OC[C@H]1O[C@@H](n2ccc(=O)[nH]c2=O)[C@](C)(F)[C@@H]1O)Oc1ccccc1 [sofosbuvir, reference compound] |  |  |  |  |  |  | 177 | 120 | 111 |  | 
CCC[C@H](NC(=O)[C@@H]1[C@H]2CCC[C@H]2CN1C(=O)[C@@H](NC(=O)[C@@H](NC(=O)c1cnccn1)C1CCCCC1)C(C)(C)C)C(=O)C(=O)NC1CC1 [telaprevir] |  |  | 6 |  |  |  | 290 | 230 | 314 | 7 | 10
